In article PMC4558152, “A small molecule inhibitor of atypical protein kinase C signaling inhibits pancreatic cancer cell transformed growth and invasion” (Oncotarget, 2015):

Target: T1, PKCζ (Homo sapiens, UniProt Q05513)
T1 construct: gene PRKCZ
T1 sequence (Q05513 1-113): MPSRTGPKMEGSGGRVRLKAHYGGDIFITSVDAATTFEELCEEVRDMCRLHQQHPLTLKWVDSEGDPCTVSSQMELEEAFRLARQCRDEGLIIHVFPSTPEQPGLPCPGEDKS
T1 sequence (Q9NPB6 whole entry partner): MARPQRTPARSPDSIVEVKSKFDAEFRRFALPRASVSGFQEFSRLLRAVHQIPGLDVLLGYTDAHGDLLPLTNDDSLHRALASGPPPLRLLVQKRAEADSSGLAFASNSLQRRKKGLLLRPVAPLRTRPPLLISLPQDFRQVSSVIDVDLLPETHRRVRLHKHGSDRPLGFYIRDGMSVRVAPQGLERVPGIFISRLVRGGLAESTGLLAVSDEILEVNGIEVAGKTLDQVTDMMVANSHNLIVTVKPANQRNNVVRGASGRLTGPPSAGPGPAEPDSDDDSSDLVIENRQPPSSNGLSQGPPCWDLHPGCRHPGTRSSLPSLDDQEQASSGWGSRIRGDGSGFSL

O=C(O)CC([S][Au])C(=O)O (stereo not shown) [ATM, Aurothiomalate]
IC50: 3 µM
